# From the supplement of paper PMC10307832
# Assays:
# Experiment in all cases: relative viability (nuclei count vs DMSO), 5 days (fraction); higher = more cells survive
# Crenolanib = compound: CC1(COc2ccc3c(c2)ncn3-c2ccc3cccc(N4CCC(N)CC4)c3n2)COC1 [Crenolanib]
# Summary of the method: (§1)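 Nuclei counted with MetaXpress define viability as the ratio of treated to vehicle wells, given as a median across plates. The lung cancer cell lines were in 1536-well plates, pinned with five √10-spaced library-drug doses and imaged at 4× after 5 days and Hoechst staining. Plates passed with control CV below 25% and at least one doubling.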
# Tivantinib = compound: O=C1NC(=O)[C@@H](c2cn3c4c(cccc24)CCC3)[C@@H]1c1c[nH]c2ccccc12 [Tivantinib]
# Summary of the method: as §1
# Crenolanib + Decitabine = compound: CC1(COc2ccc3c(c2)ncn3-c2ccc3cccc(N4CCC(N)CC4)c3n2)COC1 [Crenolanib] + Nc1ncn([C@H]2C[C@H](O)[C@@H](CO)O2)c(=O)n1 [Decitabine] (partner 2 µM)
# Summary of the method: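 Relative viability divides the nuclei count in treated wells by that in vehicle wells. Lung cancer cell lines were seeded in 1536-well plates, dosed by pin tool the next day, and fixed and stained after 5 days in one step with final 0.05% Triton X-100, 1% formaldehyde and 1 ug/ml Hoechst. Dosing was a single drug or a fixed anchor-drug dose plus five library-drug doses (not always all listed) in √10 steps, and values are medians of duplicate plates imaged at 4×.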
cell line,measurement,setting,value
UMC-11,relative viability,Crenolanib; 0.01 µM,0.963
same,relative viability,Crenolanib; 0.03162 µM,0.978
same,relative viability,Crenolanib; 0.1 µM,0.972
same,relative viability,Crenolanib; 0.3162 µM,1.01
same,relative viability,Crenolanib; 1 µM,0.931
same,relative viability,Tivantinib; 0.01 µM,0.966
same,relative viability,Tivantinib; 0.03162 µM,0.842
same,relative viability,Tivantinib; 0.1 µM,0.923
same,relative viability,Tivantinib; 0.3162 µM,1.03
same,relative viability,Crenolanib + Decitabine; first compound 0.01 µM,0.669
same,relative viability,Crenolanib + Decitabine; first compound 0.03162 µM,0.578
same,relative viability,Crenolanib + Decitabine; first compound 0.1 µM,0.627
same,relative viability,Crenolanib + Decitabine; first compound 0.3162 µM,0.588
same,relative viability,Crenolanib + Decitabine; first compound 1 µM,0.557
